According to patent US6060516A, “N^1 -propargylhydrazines, N^2 -propargylhydrazines and their analogs for the treatment of depression, anxiety and neurodegeneration” (CV Technologies, Inc., priority 1998, dated 2000):

How the values were obtained:
[1] = test system: rat brain and liver monoamine oxidase-A; test: Monoamine oxidase-A inhibiting activity ex vivo; type: in vivo; settings: 5.75 μmol/kg, 5 hr, i.p. in 10% DMSO
Protocol: (§1) Radiolabelled 5-hydroxytryptamine was used as a substrate for monoamine oxidase-A. The compounds of interest were either injected intraperitonealy in DMSO or administered by gavage in water for various periods. The animals were killed by decapitation and the brains and livers immediately removed and frozen until assayed for monoamine oxidase-A activity. Tissues were homogenized and appropriately diluted in buffer prior to incubation. Incubations proceeded at 37° C. for 10 minutes. Incubation was terminated by the addition of acid and the radiolabelled product (5-hydroxyindoleacetaldehyde and 5-hydroxyindoleacetic acid) was extracted and quantified by liquid scintillation counting procedures. Incubations were done in triplicate and incubations containing phenelzine were included for comparison. The percent inhibition of monoamine oxidase-A activity compared to controls containing no drug was calculated.
Values are the mean ± the standard error based on (n) determinations.
Oral doses were administered as 75 μmol/kg on day 1, 75 μmol/kg on
day 2 and the animals were killed 5 hours later.

[2] = test system: DSP-4 induced noradrenaline depletion in mouse hippocampus; test: Prevention of DSP-4 induced noradrenaline depletion in mouse hippocampus; type: in vivo
Protocol: (§2) Neuroprotectant activity was evaluated by examining the prevention of DSP-4 induced noradrenaline depletion in mouse hippocampus as described in Yu, P. H., Davis, B. A., Fang, J. and Boulton, A. A. (1994), Neuroprotective effect of some monoamine oxidase-B inhibitors against DSP-4 induced noradrenaline depletion in the mouse hippocampus, J. Neurochem. 63: 1820-1828. Briefly, mice were injected (i.p.) with either 20% DMSO or potential neuroprotectants (10 mg/kg in 20% DMSO). One hour later they were injected with either water or DSP-4 (50 mg/kg in water). One week later the mice were killed and the brains removed and the hippocampus dissected out. The hippocampus was frozen and saved for estimation of noradrenaline and other aminergic neurotransmitters and their metabolites as in Sloley, B. D. and Goldberg J. I. (1991), Determination of γ-glutamyl conjugates of monoamines by means of high-performance liquid chromatography with electrochemical detection and application to gastropod tissues, J. Chromatog. 567: 49-56. The rest of the brain was frozen and retained for estimation of monoamine oxidase activities ex vivo as described earlier.

MAO-A = MAO-A inhibition ex vivo in DSP-4 treated mice (brain); design: species or system mouse
Protocol: as §1, with “The compounds were evaluated for ex vivo monoamine oxidase-A inhibiting activity using the radiochemical procedure of Lyles, G. A. and Callingham, B. A. (1982). […] Biochem. Pharmacol. 31: 1417-1424. Radiolabelled” for “Radiolabelled”
as §2

[3] = test system: NA, DA, 5-HT, 5-HIAA and DOPAC concentrations in rat hypothalamus; test: Rat hypothalamus amine and amine metabolite concentrations; type: in vivo; settings: 5.75 μmol/kg, 5 hr, ip
Protocol: The effects of various doses of CVT-P040 on the concentrations of hypothalamus amine neurotransmitters and their metabolites were evaluated by examining concentrations of noradrenaline (NA), dopamine (DA), 5-hydroxytryptamine (5-HT), 5-hydroxyindoleacetic acid (5-HIAA) and 3,4-dihydroxyphenylacetic acid (DOPAC) in rat hypothalami 5 hours after the injection of the drug. […] The brains were removed and divided in half. One half of the brain was frozen in isopentane on dry ice and retained for estimates of amino acid neurotransmitter concentrations. The other half had the hypothalamus removed and frozen on dry ice for later estimates of amines and their metabolites according to the method of Sloley, B. D. and Goldberg J. I. (1991), Determination of γ-glutamyl conjugates of monoamines by means of high-performance liquid chromatography with electrochemical detection and application to gastropod tissues, J. Chromatog. 567: 49-56. The rest of the brain was frozen on dry ice for ex vivo examination of MAO activity as described earlier.

[4] = test system: DSP-4 induced noradrenaline depletion in mouse hippocampus; test: Prevention of DSP-4 induced noradrenaline depletion in mouse hippocampus; type: in vivo; settings: 10 mg/kg then DSP-4 50 mg/kg; saline control experiment
[5] = molecular target: T1, rat brain monoamine oxidase-A (Rattus norvegicus, UniProt P21396); test: Monoamine oxidase-A inhibiting activity in vitro (radiochemical, 5-hydroxytryptamine substrate, rat brain homogenate); type: biochemical; settings: for inhibition at 100 µM: 1 × 10^-4 M; for inhibition at 10 µM: 1 × 10^-5 M; for inhibition at 1 µM: 1 × 10^-6 M; for inhibition at 0.1 µM: 1 × 10^-7 M; for inhibition at 0.01 µM: 1 × 10^-8 M
T1 construct: appropriately diluted homogenates of rat brain or liver; from tissue; host or cells: rat brain or liver homogenate
T1 sequence (P21396 1-526): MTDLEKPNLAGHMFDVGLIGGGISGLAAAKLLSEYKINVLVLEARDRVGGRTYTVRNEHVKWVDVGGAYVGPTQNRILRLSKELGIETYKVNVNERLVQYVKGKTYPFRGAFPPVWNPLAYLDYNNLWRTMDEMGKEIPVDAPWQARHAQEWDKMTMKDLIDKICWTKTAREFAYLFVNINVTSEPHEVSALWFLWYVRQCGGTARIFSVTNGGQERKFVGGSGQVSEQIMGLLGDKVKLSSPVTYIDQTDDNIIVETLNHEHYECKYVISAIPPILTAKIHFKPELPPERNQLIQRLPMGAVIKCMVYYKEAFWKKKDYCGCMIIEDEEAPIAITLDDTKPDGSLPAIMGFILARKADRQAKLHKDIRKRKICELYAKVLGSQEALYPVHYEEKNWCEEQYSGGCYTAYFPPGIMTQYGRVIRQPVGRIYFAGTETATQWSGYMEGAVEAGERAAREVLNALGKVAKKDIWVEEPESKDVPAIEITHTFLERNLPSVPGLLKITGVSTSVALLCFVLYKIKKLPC
Protocol: Radiolabelled 5-hydroxytryptamine was used as the substrate for monoamine oxidase-A. Various concentrations of the compounds were incubated in appropriately diluted homogenates of rat brain or liver in a 0.2 M potassium phosphate buffer. Incubations proceeded at 37° C. for 10 minutes. Incubation was terminated by the addition of acid and the radiolabelled product (5-hydroxyindoleacetic acid) was extracted and quantified by liquid scintillation counting procedures. Incubations were done in triplicate and incubations containing phenelzine were included for comparison. The percent inhibition of monoamine oxidase-A activity compared to controls without the compounds of the present invention was calculated.

[6] = molecular target: T2, rat brain monoamine oxidase-B (Rattus norvegicus, UniProt P19643); test: Monoamine oxidase-B inhibiting activity in vitro (radiochemical, β-phenylethylamine substrate, rat brain homogenate); type: biochemical; settings: for inhibition at 100 µM: 1 × 10^-4 M; for inhibition at 10 µM: 1 × 10^-5 M; for inhibition at 1 µM: 1 × 10^-6 M; for inhibition at 0.1 µM: 1 × 10^-7 M; for inhibition at 0.01 µM: 1 × 10^-8 M
T2 construct: appropriately diluted homogenates of rat brain or liver; from tissue; host or cells: rat brain or liver homogenate
T2 sequence (P19643 1-520): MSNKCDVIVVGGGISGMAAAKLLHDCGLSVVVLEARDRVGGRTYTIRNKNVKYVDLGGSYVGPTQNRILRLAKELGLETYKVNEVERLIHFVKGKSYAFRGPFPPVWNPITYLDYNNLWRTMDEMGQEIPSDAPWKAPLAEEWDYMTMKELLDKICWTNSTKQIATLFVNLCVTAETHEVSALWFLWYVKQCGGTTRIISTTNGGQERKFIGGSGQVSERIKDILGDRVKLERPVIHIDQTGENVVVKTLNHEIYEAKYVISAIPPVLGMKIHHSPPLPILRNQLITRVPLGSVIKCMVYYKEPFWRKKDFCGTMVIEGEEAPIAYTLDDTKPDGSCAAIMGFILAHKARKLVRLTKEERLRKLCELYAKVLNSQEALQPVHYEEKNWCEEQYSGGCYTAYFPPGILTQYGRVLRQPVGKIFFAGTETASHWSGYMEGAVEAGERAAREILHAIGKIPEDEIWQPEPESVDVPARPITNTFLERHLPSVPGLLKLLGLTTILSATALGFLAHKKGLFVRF
Protocol: Radiolabelled β-phenylethylamine was employed as a substrate for monoamine oxidase-B. Various concentrations of the compounds of interest were incubated in appropriately diluted homogenates of rat brain or liver in a 0.2 M potassium phosphate buffer. Incubations proceeded at 37° C. for 10 minutes. Incubation was terminated by the addition of acid and the radiolabelled product (phenylacetaldehyde and phenylacetic acid) was extracted and quantified by liquid scintillation counting procedures. Incubations were done in triplicate and incubations containing phenelzine were included for comparison. The percent inhibition of monoamine oxidase-B activity compared to controls containing no drug was calculated.

PC12 cells = test: PC12 neurite outgrowth (neurotrophic effect); type: cell-based; settings: for Index of Neurite Outgrowth: seven days
Protocol: The effects of CVT-P040 on neurite outgrowth in cell culture were investigated using an established PC 12 pheochromocytoma cell culture. The effects of CVT-P040 and nerve growth factor on neurite outgrowth were estimated using the method described by Rydel, R. E and Greene, L. A.(1987), Acidic and basic fibroblast growth factors promote stable neurite outgrowth and basic neuronal differentiation in cultures of PC12 cells, J. Neuroscience 7: 3639-3653. Briefly, PC12 cells were seeded and maintained in 100 cm^2 tissue culture dishes at 37° C. in RPMI1640 media containing 1% antibiotics, 10% heat inactivated horse serum and 5% fetal bovine serum in a water saturated atmosphere of 95% air and 5% CO2. The cells were mechanically dislodged and plated into 35 mm collagen-coated tissue culture dishes containing a total of 2.0 ml complete medium at a density of […]. The medium was changed 3 times/week. Cellular responses to CVT-P040 and nerve growth factor (NGF) were determined by counting the number of PC12 cells containing processes. Photographs of the cells were taken after seven days treatment. Two cell fields were chosen in each dish and the photographs developed and printed. […] The neurite index was calculated using the following formula; Neurite Index=total neurite score (ΣS)/ total cell number (ΣN); ΣS=S1×N+S2×N +S3×N+S4×N, where N is the number of cells in each cell field.

[7] = 10 mg/kg i.p. then DSP-4 50 mg/kg, 20% DMSO control experiment

Compound	inhibition at 100 µM [5] [%]	inhibition at 10 µM [5] [%]	inhibition at 100 µM [6] [%]	inhibition at 10 µM [6] [%]	inhibition at 1 µM [5] [%]	inhibition at 0.1 µM [5] [%]	inhibition at 0.01 µM [5] [%]	inhibition at 1 µM [6] [%]	inhibition at 0.1 µM [6] [%]	inhibition at 0.01 µM [6] [%]	further results
C#CCN(C)[C@H](C)Cc1ccccc1 [(-)-deprenyl, reference compound]	–	–	–	–	–	–	–	–	–	–	% Inhibition Monoamine Oxidase-A ([1]; brain): -0.6 ± 1.1%; % Inhibition Monoamine Oxidase-A ([1]; liver): 8.0 ± 2.2%; % NA Restoration [2, 7]: 86.6%; NA [2, 7]: 315 ± 34 ng/g; protection against DSP-4 induced noradrenaline depletion / neuroprotective effect ([2]; 10 mg/kg, mouse hippocampus, in words): significantly protected against DSP-4 induced noradrenaline depletion; MAO-A % Inhibition (MAO-A; [7]): 18.8 ± 6.0%; MAO-A % Inhibition (MAO-A; 10 mg/kg then DSP-4 50 mg/kg, saline control experiment): 9.9 ± 6.0%; 5-HIAA [3]: 407 ± 22 ng/g; 5-HT [3]: 821 ± 44 ng/g; DA [3]: 541 ± 44 ng/g; DOPAC [3]: 87 ng/g; NA [3]: 1510 ± 70 ng/g; % NA Restoration [4]: 73.1%; NA [4]: 432 ± 13 ng/g
C#CCNNCCc1ccccc1 [CVT-P039, N^2 -propargylphenelzine]	31.6	-25.8	20.9	-0.2	–	–	–	–	–	–	–
C#CCN(N)Cc1ccccc1 [CVT-P046, N^1 -propargylbenzylhydrazine]	100	99.4	100	92.3	49.4	18.5	-5	86.2	64.9	18.6	–
C#CCN(N)c1ccccc1 [CVT-P047, N^1 -propargylphenylhydrazine]	99.7	78.2	100	94.3	15.9	-3.8	-2.9	65.1	17.9	0.1	–
NGF: nerve growth factor (NGF)	–	–	–	–	–	–	–	–	–	–	Index of Neurite Outgrowth (PC12 cells; NGF 0.1 ng/ml): 0.58 ± 0.03; Index of Neurite Outgrowth (PC12 cells; NGF 0.3 ng/ml): 0.79 ± 0.07; Index of Neurite Outgrowth (PC12 cells; NGF 1.0 ng/ml): 1.16 ± 0.06; neurite outgrowth in PC12 cells (PC12 cells; NGF 0.1, 0.3 and 1.0 ng/ml, in words): increased neurite outgrowth in PC12 cells
